In article PMC8769072, “Proteome‐scale mapping of binding sites in the unstructured regions of the human proteome” (Molecular Systems Biology, 2022):

Tested on: immobilized GST-tagged bait protein domains
Test: ProP-PD phage selections (HD2 P8, sublibraries, HD2 P3, HD1 P8) with NGS and confidence level
Assay type: binding, human
[1] = bait PEX14_Pex14__O75381_16_84, HD2 library, whether the validated benchmark motif instance was recovered in the ProP-PD selection (TRUE/FALSE)
[2] = bait OXSR1___O95747_434_527, HD2 library, whether the validated benchmark motif instance was recovered in the ProP-PD selection (TRUE/FALSE)
[3] = bait CALM1_EF-hand__P0DP23_2_149, library HD2, benchmarking set of validated motif instances, TRUE = motif instance recovered in the ProP-PD selection
[4] = bait MAP1LC3A_ATG8 (Q9H492 2-121), HD2 library, benchmark motif instance recovered in the ProP-PD selection (TRUE/FALSE)
[5] = bait AP2B1_adaptin__P63010_700_937, library HD2, benchmarking set of validated motif instances, TRUE = motif instance recovered in the ProP-PD selection
[6] = library HD2, bait YES1_SH3__P07947_90_152, validated benchmark motif instance, in_library_check TRUE, TRUE/FALSE = instance recovered in ProP-PD selection
[7] = library HD2, bait KLC1_TPR__Q07866_203_497, whether the validated benchmark motif instance was recovered in the ProP-PD selection (TRUE/FALSE)
[8] = bait MAP1LC3B_ATG8 (Q9GZQ8 2-119), HD2 library, benchmark motif instance recovered in the ProP-PD selection (TRUE/FALSE)
[9] = HD2 library, bait SUMO1_SUMO__P63165_1_101, known motif instance of the benchmarking set found (TRUE) or not found (FALSE) among selected peptides

In the case of QDYNETDWSQEFISEVTDP, the motif_found [1] is reported as “FALSE”.
For “QDLLELKSVIKLQAWWRGTMIRR,DLLELKSVIKLQAWWRGTMIRREIGGFKMPK [IQCG 397-411]”, the motif_found (HD2 library, bait CALM1_EF-hand__P0DP23_2_149, benchmark motif instance, in_library_check FALSE, in_library_coverage 0) was “FALSE”.
With DDPDAAELNPFGDPDSEEP the motif_found (library HD2, bait EPS15_EH__P42566_121_215, whether the validated benchmark motif instance was recovered in the ProP-PD selection (TRUE/FALSE)) was “FALSE”.
In the case of KKAFVHMPTLPNLDFHKTGDGL, the motif_found (library HD2, bait ANKRA2_Ank__Q9H9E1_142_313, motif instance NOT in library (in_library_check FALSE, in_library_coverage 0)) is reported as “FALSE”.
With “PGSAPPPQAQGPPYPTYPGYPGYCQ,QAQGPPYPTYPGY [PDCD6IP]” the motif_found (bait CEP55_EABR__Q53EZ4_160_217, library HD2, benchmarking set of validated motif instances, TRUE = motif instance recovered in the ProP-PD selection) was “FALSE”.
With VVHSAGRRFIVSPVPESRL the motif_found [2] was “FALSE”.
With “GYRQSPDGACSV,YRQSPDGACS,LRNSATGYRQSPDGACSVPSAR,YRQSPDGACSV [LNPEP 95-102]” the motif_found (HD2 library, bait TNKS_TANK-peptide-bind__O95271_174_649, benchmark motif instance, in_library_check FALSE, in_library_coverage 0) was “FALSE”.
AFIIWLARRLKKGKK [SELL] was tested, and the motif_found [3] was “FALSE”.
For RPPDDAVFDIITDEELCQIQ, the motif_found [4] was “FALSE”.
SETMSMPQLTVPASGS gave an HD2 confidence (bait ANKRA2_Ank__Q9H9E1_142_313, library HD2 P8) of 4.
In the case of NTPSGKSDDDFADFHSSKFSS [SYNRG], the motif_found [5] is reported as “FALSE”.
In the case of KISPPTPKPRPPRPLPVAPGS, the motif_found [6] is reported as “FALSE”.
In the case of “ELDTNDDDIVFEDFARQRLKGMKDD,DDDIVFEDFARQRL [ARRB1]”, the motif_found [5] is reported as “FALSE”.
With NSVTSTNLEWDDSAIAPSSEDYDF the motif_found [7] was “FALSE”.
For FRPENEEDILVVTTQGEVE, the motif_found [4] was “FALSE” and the motif_found [8] was “FALSE”.
For DAQAGKEPGGSRAHSSHLK, the motif_found (library HD2, bait USP7_MATH-TRAF__Q93009_53_206, validated benchmark motif instance, in_library_check TRUE, TRUE/FALSE = instance recovered in ProP-PD selection) was “FALSE”.
With RRRWKLSFSIVSLCNHLTR [DAPK2] the motif_found [3] was “FALSE”.
For DNEKECIIVWEKK, the motif_found [9] was “FALSE”.
In the case of VGRFQVTSSKEPAEPL, the best_confidence (bait OXSR1___O95747_434_527, HD2 library, confidence level (1-4) of best matching selected peptide) is reported as 4, the best_specificity (bait OXSR1___O95747_434_527, HD2 library, specificity score of best matching selected peptide) is reported as 1 and the motif_found [2] is reported as “TRUE”.
EEDQILKKPLPPEPAAAPVST was tested, and the motif_found [6] was “FALSE”.
TLVSPKLPSLEAPTSA was tested, and the HD2 confidence (bait ANKRA2_Ank__Q9H9E1_142_313, HD2 P8 selection, confidence level -4 to 4: 4 = High, 3 or 2 = Medium, 1 = Low, 0 = Filtered/Noise) was 3.
With LPIPGTPPPNYDSLRLQP the motif_found (bait NEDD4_WW_4_P46934_890_928, HD2 library, whether the validated benchmark motif instance was recovered in the ProP-PD selection (TRUE/FALSE)) was “FALSE” and the motif_found (library HD2, bait YAP1_WW_1_P46937_169_207, validated benchmark motif instance, in_library_check TRUE, TRUE/FALSE = instance recovered in ProP-PD selection) was “FALSE”.
In the case of PATKEISLLDLEDFTPPSV [AP3B2], the motif_found (bait CLTC_Clathrin-propeller__Q00610_1_364, library HD2, benchmarking set of validated motif instances, TRUE = motif instance recovered in the ProP-PD selection) is reported as “FALSE”.
Substance PLIDLPLIDFCDTPEA has an HD2_nc confidence (bait CLTC_Clathrin-propeller__Q00610_1_364, HD2 P8 nucleocytoplasmic sublibrary, confidence level (4 = High, 2-3 = Medium, 1 = Low)) of 4, an HD2_nc mean counts (bait CLTC_Clathrin-propeller__Q00610_1_364, HD2 P8 nucleocytoplasmic sublibrary, mean NGS counts over replicate selections) of 154.7 and an HD2_nc count proportions (bait CLTC_Clathrin-propeller__Q00610_1_364, HD2 P8 nucleocytoplasmic sublibrary, mean proportion of NGS counts) of 0.002602.
For GRAQAEQWAAEFIQQQGTS, the motif_found [1] was “FALSE”.
For “LPLYTSPSLPNITLGLP,PLPLYTSPSLPNITLGLPATGPSA [HDAC4]”, the motif_found (bait ANKRA2_Ank__Q9H9E1_142_313, library HD2, benchmarking set of validated motif instances, TRUE = motif instance recovered in the ProP-PD selection) was “TRUE”.
With PEISLEAEPIELVETAGDEIVD the motif_found [9] was “FALSE”.
In the case of LINVRKRNVESGEEELASKL, the motif_found (library HD2, bait Keap1_KELCH__Q14145_321_609, whether the validated benchmark motif instance was recovered in the ProP-PD selection (TRUE/FALSE)) is reported as “FALSE”.
With ASDDSNGLEWENDFVSAEMDDNGN the motif_found [7] was “FALSE”.
With -MDAATLTYDTLRFAEFED the motif_found [4] was “FALSE” and the motif_found [8] was “FALSE”.
With SQKGNISETIVIDDEEDIETNGGA the motif_found [9] was “FALSE”.
